The source of these data is patent US11400160B2, “Multifunctional conjugates” (E.P.O.S IASIS Research and Development Limited, priority 2017, dated 2022).

Assay [1] has as its system metastatic breast cancer cell lines (MCF-7, MDA-MB231, MDA-MB231TXSA). The assay can be described thus: Cell viability / antiproliferative activity, breast cancer lines. The format is cell-based. Particulars: for antiproliferative activity compared with bpp(OEt): esterified compounds and 1:1 mixtures; for effect on cell viability: viability assays and IC50s, 72 hrs. As for the experimental part: (§1) Immortalised osteolytic metastatic breast cancer cell lines, a) hormone-dependent MCF-7 and b) hormone refractory MDA-MB231, together with the daughter line MDA-MB231TXSA were incubated with 5 gradual concentrations of compounds of the invention as described below. Cell viability was assessed with the crystal violet colorimetric assay and IC50s were evaluated.
(§2) Medium was removed from cell cultures and cells were fixed with 4% v/v formaldehyde for 5 mins at room temperature. Formalin was then removed and CV added for 10 mins at room temperature followed by several washes with dsH2O. Samples were allowed to dry overnight. The following day, 10% acetic acid was added for 15 mins and optical density at 620 nm was measured. Optical densities versus compound concentrations were plotted in graphs and IC50s estimated by linear regression analysis using the WorkOut (VictorX4) software.
(§3) MCF-7, MDA-MB231 and MDA-MB231TXSA cells were seeded in 96-well-plates and allowed to attach overnight. The following day media were replaced with fresh media containing the following compounds: Both free tetraethyl methylbisphosphonate (bpp(OEt)) and bpp(OEt) in 1:1 combination with the free chromanol and the biphosphonate conjugates were tested at 5 gradual concentrations of: 0.02, 0.04, 0.06, 0.08 and 0.1 mM.
(§4) Cells were cultured in the presence of the compounds for 72 hrs and viability was assessed on day 3 by crystal violet assay. The cell lines were selected for their high bone metastatic potential. The fluorescently transfected line MB231TXSA, derived from line MB231 is also used in animal studies (WP7).

The next assay relates to MCF-7 cells. The assay can be described thus: Cell viability, crystal violet colorimetric assay. The class given is cell-based. Particulars: 72 hrs; for pEC50: * denotes EC50 value, read-out: EC50 value (starred) MCF-7; for pIC50: tested at 0.02-0.1 mM, unstarred values. The protocol:
as §1, §2
MCF-7, MDA-MB231 and MDA-MB231TXSA cells were seeded in 96-well-plates and allowed to attach overnight. […]
as §4

For another assay, the system named is MDA-MB231TXSA cells. The assay can be described thus: Cell viability, crystal violet colorimetric assay. Particulars: 72 hrs; for pIC50: tested at 0.02-0.1 mM, read-out: IC50 values MB231-TXSA. The class given is cell-based. The protocol:
as §1, §2, §3, §4

The next assay deals with MDA-MB231 cells. As to the kind of experiment: Cell viability, crystal violet colorimetric assay. The format is cell-based. Particulars: 72 hrs; for pIC50: tested at 0.02-0.1 mM; for pEC50: * denotes EC50 value, read-out: EC50 value (starred) MB231. As for the experimental part: as §1, §2, §3, §4
The test system of assay [2] is breast and prostate cancer metastatic cell lines. As to the kind of experiment: Dose response of cell viability of breast and prostate cancer cells (FIG. 1). The format is cell-based.
A short description of assay [3]: Binding to pre-loaded bone slices / hydroxyapatite after washing. Particulars: pre-loaded whale dentine or osteologic slides, unbound drug washed away. The text has this: (§5) In a separate experiment, pre-loaded bone slices (whale dentine) or commercial forms of hydroxyapatite (osteologic slides) with either free γ-tocopherol (γToc) or γ-tocopherol-bpp(OEt) (BP-γToc) and then washed away unbound drug.

Assay [4] has as its system osteoclasts from RAW264.7 and Human PBMC. The assay can be described thus: Resorption on pre-loaded whale dentine / osteologic slides (pit formation). The class given is cell-based, murine.
From the text: Zoledronic acid was used as control.
(§6) Human peripheral blood mononuclear cells (PBMCs) and the RAW264.7 murine monocytic cell line were differentiated into osteoclast-like cells in the presence of RANKL plus M-CSF and have been used as model systems of osteoclastogenesis. Osteoclast-like cells, from Giant Cell Tumours (GCT) of bone specimens from three independent donors were used to investigate the effect of compounds of the invention on the bone resorbing activity of mature osteoclasts.
Human PBMCs were isolated from normal healthy donors isolated from the buffy coats acquired from the local Red Cross Blood Service. The cells were diluted in Hanks Balanced Salt Solution (HBSS) and separated by gradient centrifugation with Lymphoprep™. Isolated cells were resuspended in α MOD, 10% FCS, L-glutamine (2 mM), Hepes (20 mM), supplemented with M-CSF (25 ng/ml), 1α,25(OH)2 vitamin D3 (10 nM) and dexamethasone (10 nM) and plated into 96-well plates containing whale dentine slices, for the bone resorption assay or directly into wells for TRAP staining. The following day, media were removed and replaced with media as above, supplemented with RANKL (100 ng/ml) in the presence or absence of increasing concentrations of compounds of the invention. Medium and treatments were replaced every three days.
(§7) Cells were cultured in 96-well plates at a density of 1×10^4 cells/well in DMEM medium with 10% FCS, L-glutamine (2 mM) and Hepes (20 mM). Cells were allowed to attach for 4 hrs before treatment with RANKL (50 ng/ml) in the presence or absence of increasing concentrations of compounds of the invention as above. Medium and treatments were replaced on day three and TRAP activity determined on day 5. The overall number of viable cells were determined by crystal violet staining.
Whale dentine slices will be washed in extran, rinsed with distilled water, washed in 70% ethanol and dried overnight. The dentine slices mounted on stubs, carbon-coated and visualised on a Philips XL-20 scanning electron microscope, (SEM) as previously described. Images will be analysed using ImageQuant software and the area of resorption determined for each dentine slice (quadruplicate dentine slices for each treatment). Results are expected to be average resorption area +/− standard errors of the mean (SEM) and the significant differences between treatments will be determined using Students t-tests (2-tailed, unpaired).
as §5

A further assay relates to RAW264.7 cells. The assay can be described thus: In vitro osteoclastogenesis of RAW264.7 (TRAP staining). The class given is cell-based, murine. Particulars: RANKL-differentiated; γ-tocopherol at 1 μg/ml and 201 μg/ml; bpp(OEt) at increasing concentrations; FIG. 4. The protocol: as §6, §7
Osteoclast cultures established by the differentiation of RAW264.7 cells in wells were fixed and stained for tartrate resistant acid phosphatase (TRAP) as recommended by the manufacturer on days 4 and 5. TRAP positive cells were visualised by light microscopy and images taken with a digital camera.

For assay [5], the system named is metastatic breast cancer lines. As to the kind of experiment: DAPI staining of apoptotic nuclei. The class given is cell-based. Particulars: cells treated with IC50 concentrations. As for the experimental part: Compounds with statistically significant decrease in viability were further examined to determine whether their effect was due to induced apoptosis based on morphologic criteria in DAPI-stained cells. […] Pro-apoptotic efficacies were compared using two-way analysis of Variance (ANOVA) followed by Bonferroni post-tests.
Growth medium was removed and cells were fixed with 4% v/v formaldehyde in PBS for 5 mins at room temperature. Fixed cells were washed once with PBS and incubated with 1 μg/ml DAPI in PBS for 20 mins at 37° C. Rinsed with PBS and mounted in mounting medium. Coverslips were sealed on glass slides and examined for the presence of apoptotic cells by fluorescence microscopy (see FIG. 2).

Assay [6] concerns Caspase-3 activity in MB231 breast cancer cell-line. As to the kind of experiment: Caspase-3 enzymatic activity assay. The class given is cell-based. Particulars: IC50 concentrations, two-way ANOVA with Bonferroni post-tests. As for the experimental part:
Cells were grown in 12 well-plates in the presence of IC50 concentrations of compounds of the invention or culture medium with 0.1% v/v ethanol as control and were washed with PBS and incubated with lysis buffer for 15 mins at 4° C. Lysates were centrifuged at 15000 g. 20 μl of each lysate suspension was incubated with 100 μl of protease buffer containing 10 μM of fluorescent substrate zDEVD-AFC (3 samples/lysate) for 4 hrs at room temperature. Caspase-3 enzymatic activity was measured every 1 hr by fluorescence with excitation at 405 nm and emission at 515/30 nm.
Fluorescence measurements were plotted in graphs against time and were statistically analysed by two-way ANOVA followed by Bonferroni post-tests to identify statistically significant apoptotic activities of compounds of the invention (see FIG. 3).

pEC50, pIC50: −log10 of the molar value. Like-named read-outs stand apart in the source and are kept apart here.

What is called pEC50 is −log10 of the EC50, conventionally taken in molar units. Broadly, the pIC50 is −log10 of the IC50, conventionally taken in molar units. Turning to “α-tocopheryl Bisphosphonic Acid [α-toc-bpp(OH)]”, the “antiproliferative activity compared with bpp(OEt)” value in assay [1] is listed as “increased”. In addition, in [1], the “effect on cell viability” value is on record as “reduced cell viability”. In the assay on MCF-7 cells (Exp.3), the pEC50 is 3.45. Besides, the negative-log IC50 (pIC50) in the assay with MCF-7 cells (Exp.4) is 4.19; in the assay on MDA-MB231TXSA cells (Exp.3), 4.05; in the assay with MDA-MB231TXSA cells (Exp.4), 4.12; in the assay with MDA-MB231 cells (Exp.3, unstarred values), 4.21; in the assay with MDA-MB231 cells (Exp.4, unstarred values) it was 3.62.
As for `CC(C)=CCC/C(C)=C/CC/C(C)=C/CC[C@]1(C)CCc2cc(O)c(C)c(C)c2O1` [γ-Tocotrienol], the “cell viability on breast and prostate cancer metastatic cell lines” value in assay [2] is “inhibited in a dose-dependent manner”.
For the compound `CCOP(=O)(OCC)C(CCC(=O)O)P(=O)(OCC)OCC` [bpp(OEt), Tetra Ethyl 4,4-bis(phosphono)-butanoic Acid, reference compound], the “binding to bone substrate / bone mineral” value in assay [3] is listed as “high affinity for bone”. In assay [1], the “antiproliferative/proapoptotic effect in metastatic breast cancer cell-lines” value was “did not have antiproliferative/proapoptotic effect”. The pIC50 in the assay on MCF-7 cells (Exp.1) was 3.97; in the assay with MDA-MB231TXSA cells (Exp.1) it was 3.36; with MDA-MB231TXSA cells (Exp.2, unstarred values) it was 3.89; in the assay with MDA-MB231TXSA cells (Exp.3), 3.87; in the assay with MDA-MB231TXSA cells (Exp.4), 3.75; in the assay on MDA-MB231 cells (Exp.1, unstarred values) it was 3.98. Moreover, the negative-log IC50 (pIC50) in the assay on MDA-MB231 cells (Exp.2) is 3.62. Moreover, the negative logarithm of the EC50 (pEC50) in the assay on MCF-7 cells (Exp.2) was 3.85; in the assay with MCF-7 cells (Exp.3), 3.44; with MCF-7 cells (Exp.4), 2.70; in the assay with MDA-MB231 cells (Exp.3), 4.13; with MDA-MB231 cells (Exp.4), 3.15. The “anti-resorptive activity of the free bisphosphonate” value in [4] is given as “minimal anti-resorptive activity”. The “cell viability on breast and prostate cancer metastatic cell lines” value in assay [2] is “without effect”. In addition, the “osteoclastogenesis of Raw264.7” value with RAW264.7 cells is listed as “inhibited osteoclastogenesis in a dose-dependent manner”.
On to “γ-tocopheryl Diphosphonic Acid [γ-toc-bpp(OH)]”, for which the “antiproliferative activity compared with bpp(OEt)” value in assay [1] is “increased”. Moreover, the “antiproliferative activity compared with γ-tocopherol” value in [1] (upon esterification of γ-tocopherol) was “increased”. Also, the “effect on cell viability” value in [1] is listed as “reduced cell viability”. The negative-log EC50 (pEC50) with MCF-7 cells (Exp.1) is 3.52; in the assay with MDA-MB231TXSA cells (Exp.2, * denotes EC50 value, read-out: EC50 value (starred) MB231-TXSA) it was 3.74. Further, the pIC50 in the assay on MCF-7 cells (Exp.2) is 4.19; in the assay on MDA-MB231TXSA cells (Exp.1), 4.04; with MDA-MB231 cells (Exp.1, unstarred values) it was 3.77; with MDA-MB231 cells (Exp.2), 4.18. Further, the “apoptotic nuclei (condensed chromatin, fractured nuclei) by DAPI staining” value in [5] is “increased numbers of apoptotic nuclei”. The “pro-apoptotic activity (Caspase-3 activity)” value in [6] is listed as “did not show significant pro-apoptotic activity”.
As for `CCOP(=O)(OCC)C(CCC(=O)Oc1c(C)c(C)c2c(c1C)CCC(C)(CCCC(C)CCCC(C)CCCC(C)C)O2)P(=O)(OCC)OCC` (stereo not drawn) [α-toc-bpp(OEt), α-Tocopheryl Bisphosphonic Ester], the “antiproliferative activity compared with bpp(OEt)” value in assay [1] is on record as “increased”. Moreover, the “effect on cell viability” value in [1] is on record as “reduced cell viability”. Also, the negative-log EC50 (pEC50) with MCF-7 cells (Exp.3) is 3.82. For the same compound, the pIC50 was 4.11 in the assay on MCF-7 cells (Exp.4); 4.01 in the assay with MDA-MB231TXSA cells (Exp.3); 4.14 with MDA-MB231TXSA cells (Exp.4); 3.89 in the assay on MDA-MB231 cells (Exp.3, unstarred values); 3.55 in the assay with MDA-MB231 cells (Exp.4, unstarred values).
As to `Cc1c(C)c2c(c(C)c1O)CC[C@@](C)(CCC[C@H](C)CCC[C@H](C)CCCC(C)C)O2` [α-toc, α-tocopherol, reference compound], the pIC50 in the assay on MCF-7 cells (Exp.3) was 4.26; in the assay with MCF-7 cells (Exp.4) it was 4.26; with MDA-MB231TXSA cells (Exp.3), 3.86; with MDA-MB231TXSA cells (Exp.4) it was 4.05; in the assay with MDA-MB231 cells (Exp.3, unstarred values), 3.99. The pEC50 with MDA-MB231 cells (Exp.4) was 3.88.
